Reference: US10314785B2, “Sterile pharmaceutical compositions” (NORTON HEALTHCARE LTD, priority 2004, dated 2019)
Values after ≈ are worked out from the molar mass of the structure shown.

Key:
[1] = Heat sterilization of beclomethasone dipropionate concentrates: content, impurities, particle size; assay type: physicochemical; conditions: 121/30, data not shown
Procedure: Determination of impurity levels and particle size were also determined as outlined above.

[2] = suspensions sterilized by a wet steam process; cited from earlier work
[3] = Water solubility of budesonide at sterilizing temperatures; assay type: physicochemical
Procedure: A balance is required between the solubility of the glucocorticosteroid and the amount of the glucocorticosteroid used per unit of solvent such that at least 50% of the glucocorticosteroid is suspended in the solvent. For example, for budesonide, at the sterilizing temperatures used herein the water solubility is about 7 mg/ml. Therefore, using 15 mg of budesonide per […] provides 53% of budesonide as a suspension. Preferably at least 60% of the glucocorticosteroid is suspended in the solvent although this value could be at least 70% or at least 80%.

CCC(=O)OCC(=O)[C@@]1(OC(=O)CC)[C@@H](C)C[C@H]2[C@@H]3CCC4=CC(=O)C=C[C@]4(C)[C@@]3(Cl)[C@@H](O)C[C@@]21C [beclomethasone, beclomethasone dipropionate]
change in beclomethasone content upon heating in the autoclave [1]: no significant change
change in particle size distribution on autoclaving [1]: no significant change
increase in impurities upon heating in the autoclave [1]: no significant change in beclomethasone content or increase in impurities
decrease in active ingredient content [2]: 8-9%
increase in degradation products [2]: 10-11%

CCCC1O[C@@H]2C[C@H]3[C@@H]4CCC5=CC(=O)C=C[C@]5(C)[C@H]4[C@@H](O)C[C@]3(C)[C@]2(C(=O)CO)O1 (stereo partly shown) [budesonide]
fraction of budesonide suspended ([3]; using 15 mg of budesonide per 1 mg water): 53%
solubility ([3]; water, at the sterilizing temperatures used herein): ~7000 µg/mL (≈ 16.3 mM)
